# “And” between values parts separate entries of the source, which are not always exact repeats. Equal values may be shown once.
# Test system: 324938-238-R-J1-PDC complex spheroid viability
# Assay: Anticancer human tumor 324938-238-R-J1-PDC patient-derived bladder carcinoma cell line growth inhibition
# Conditions: for viability, T/C: stronger effect = lower value
# Outline: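 Complex spheroids of tumor cells with HUVEC and human MSCs, exposed to iadademstat combined with other agents. Each agent tested in half-log steps from near clinical Cmax (else 10 microM top), DMSO ≤0.25%.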
# [1] = curve of first compound, second compound 0.1 µM
# [2] = curve of first compound, second compound 0.316 µM
# [3] = curve of first compound, second compound 1 µM
# [4] = curve of first compound, second compound 3.16 µM
# [5] = curve of first compound, second compound 10 µM
# [6] = second compound 0.1 µM, first compound 0.00949 µM
# [7] = second compound 0.1 µM, first compound 0.03 µM
# [8] = second compound 0.1 µM, first compound 0.0949 µM
# [9] = second compound 0.1 µM, first compound 0.3 µM
# [10] = second compound 0.316 µM, first compound 0.00949 µM
# [11] = second compound 0.316 µM, first compound 0.03 µM
# [12] = second compound 0.316 µM, first compound 0.0949 µM
# [13] = second compound 0.316 µM, first compound 0.3 µM
# [14] = second compound 1 µM, first compound 0.00949 µM
# [15] = second compound 1 µM, first compound 0.03 µM
# [16] = second compound 1 µM, first compound 0.0949 µM
# [17] = second compound 1 µM, first compound 0.3 µM
# [18] = second compound 3.16 µM, first compound 0.00949 µM
# [19] = second compound 3.16 µM, first compound 0.03 µM
# [20] = second compound 3.16 µM, first compound 0.0949 µM
# [21] = second compound 3.16 µM, first compound 0.3 µM
# [22] = second compound 10 µM, first compound 0.00949 µM
# [23] = second compound 10 µM, first compound 0.03 µM
# [24] = second compound 10 µM, first compound 0.0949 µM
# [25] = second compound 10 µM, first compound 0.3 µM
# [26] = second compound 0.1 µM, first compound 0.949 µM
# [27] = second compound 0.1 µM, first compound 3 µM
# [28] = second compound 0.316 µM, first compound 0.949 µM
# [29] = second compound 0.316 µM, first compound 3 µM
# [30] = second compound 1 µM, first compound 0.949 µM
# [31] = second compound 1 µM, first compound 3 µM
# [32] = second compound 3.16 µM, first compound 0.949 µM
# [33] = second compound 3.16 µM, first compound 3 µM
# [34] = second compound 10 µM, first compound 0.949 µM
# [35] = second compound 10 µM, first compound 3 µM
# 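Also: spheroids also contain HUVEC and human MSCs and agents combined with iadademstat; spheroids exposed to agents for 7 days before readout.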
compound,measurement,setting,value
Nc1ncn(C2CC(O)C(CO)S2)c(=O)n1 (configuration not stated) + NC1CCC(NC2CC2c2ccccc2)CC1,IC50,[1],26.6 nM
same,IC50,[2],19.9 nM
same,IC50,[3],22.8 nM
same,IC50,[4],13.1 nM
same,IC50,[5],16.3 nM
same,"viability, T/C","second compound 0.1 µM, first compound 0.000949 µM",71.9%
same,"viability, T/C","second compound 0.1 µM, first compound 0.003 µM",73.7%
same,"viability, T/C",[6],62.8%
same,"viability, T/C",[7],47.2%
same,"viability, T/C",[8],34.2%
same,"viability, T/C",[9],22.8%
same,"viability, T/C","second compound 0.316 µM, first compound 0.000949 µM",74.1%
same,"viability, T/C","second compound 0.316 µM, first compound 0.003 µM",71.8%
same,"viability, T/C",[10],60.1%
same,"viability, T/C",[11],43.9%
same,"viability, T/C",[12],30.6%
same,"viability, T/C",[13],22.9%
same,"viability, T/C","second compound 1 µM, first compound 0.000949 µM",77.1%
same,"viability, T/C","second compound 1 µM, first compound 0.003 µM",64.8%
same,"viability, T/C",[14],58.3%
same,"viability, T/C",[15],49.3%
same,"viability, T/C",[16],35.6%
same,"viability, T/C",[17],23.8%
same,"viability, T/C","second compound 3.16 µM, first compound 0.000949 µM",70.6%
same,"viability, T/C","second compound 3.16 µM, first compound 0.003 µM",62.1%
same,"viability, T/C",[18],55.3%
same,"viability, T/C",[19],39.2%
same,"viability, T/C",[20],32.7%
same,"viability, T/C",[21],22.2%
same,"viability, T/C","second compound 10 µM, first compound 0.000949 µM",65.9%
same,"viability, T/C","second compound 10 µM, first compound 0.003 µM",64.3%
same,"viability, T/C",[22],51.3%
same,"viability, T/C",[23],48.1%
same,"viability, T/C",[24],29.7%
same,"viability, T/C",[25],22.3%
CC1COCCN1c1cc(-c2ccnn2C)c2ccnc(-c3ccn[nH]3)c2n1 (configuration not stated),"viability, T/C",compound 0.00316 µM,101%
same,"viability, T/C",compound 0.01 µM,103% and 83.1%
same,"viability, T/C",compound 0.0316 µM,60.4% and 48.2%
same,"viability, T/C",compound 0.1 µM,33.5% and 25.6%
same,"viability, T/C",compound 0.316 µM,18.6% and 14.7%
same,"viability, T/C",compound 1 µM,13.1% and 10.3%
same,IC50,curve of compound,51.4 nM and 31.1 nM
CCN(c1cc(-c2ccc(CN3CCOCC3)cc2)cc(C(=O)NCc2c(C)cc(C)[nH]c2=O)c1C)C1CCOCC1 + NC1CC1c1ccc(-c2cccc(O)c2)cc1,IC50,[1],> 3000 nM
same,IC50,[2],> 3000 nM
same,IC50,[3],> 3000 nM
same,IC50,[4],> 3000 nM
same,IC50,[5],> 3000 nM
same,"viability, T/C",[6],91.3%
same,"viability, T/C",[7],91.9%
same,"viability, T/C",[8],89.8%
same,"viability, T/C",[9],79.1%
same,"viability, T/C",[26],89%
same,"viability, T/C",[27],80.1%
same,"viability, T/C",[10],84.4%
same,"viability, T/C",[11],80.1%
same,"viability, T/C",[12],80.3%
same,"viability, T/C",[13],81.6%
same,"viability, T/C",[28],85.1%
same,"viability, T/C",[29],79.8%
same,"viability, T/C",[14],74.2%
same,"viability, T/C",[15],77.2%
same,"viability, T/C",[16],72.6%
same,"viability, T/C",[17],72.9%
same,"viability, T/C",[30],76.9%
same,"viability, T/C",[31],78.6%
same,"viability, T/C",[18],79%
same,"viability, T/C",[19],79.3%
same,"viability, T/C",[20],77.1%
same,"viability, T/C",[21],77.5%
same,"viability, T/C",[32],76.6%
same,"viability, T/C",[33],74.2%
same,"viability, T/C",[22],66.4%
same,"viability, T/C",[23],77%
same,"viability, T/C",[24],66.8%
same,"viability, T/C",[25],62.8%
same,"viability, T/C",[34],66.5%
same,"viability, T/C",[35],68.1%
CC1(C)CCC(CN2CCN(c3ccc(C(=O)NS(=O)(=O)c4ccc(NCC5CCOCC5)c([N+](=O)[O-])c4)c(Oc4cnc5[nH]ccc5c4)c3)CC2)=C(c2ccc(Cl)cc2)C1 + NC1CC1c1ccc(-c2cccc(O)c2)cc1,IC50,[1],3960 nM
same,IC50,[2],4480 nM
same,IC50,[3],3960 nM
same,IC50,[4],4190 nM
same,IC50,[5],2230 nM
same,"viability, T/C","second compound 0.1 µM, first compound 0.0316 µM",94.5%
same,"viability, T/C","second compound 0.1 µM, first compound 0.1 µM",91.3%
same,"viability, T/C","second compound 0.1 µM, first compound 0.316 µM",91.7%
same,"viability, T/C","second compound 0.1 µM, first compound 1 µM",71%
same,"viability, T/C","second compound 0.1 µM, first compound 3.16 µM",61.5%
same,"viability, T/C","second compound 0.1 µM, first compound 10 µM",17.3%
same,"viability, T/C","second compound 0.316 µM, first compound 0.0316 µM",72%
same,"viability, T/C","second compound 0.316 µM, first compound 0.1 µM",74.9%
same,"viability, T/C","second compound 0.316 µM, first compound 0.316 µM",73.2%
same,"viability, T/C","second compound 0.316 µM, first compound 1 µM",66.5%
same,"viability, T/C","second compound 0.316 µM, first compound 3.16 µM",64.2%
same,"viability, T/C","second compound 0.316 µM, first compound 10 µM",19.8%
same,"viability, T/C","second compound 1 µM, first compound 0.0316 µM",78.4%
same,"viability, T/C","second compound 1 µM, first compound 0.1 µM",74.6%
same,"viability, T/C","second compound 1 µM, first compound 0.316 µM",66.4%
same,"viability, T/C","second compound 1 µM, first compound 1 µM",69.8%
same,"viability, T/C","second compound 1 µM, first compound 3.16 µM",58.5%
same,"viability, T/C","second compound 1 µM, first compound 10 µM",19.8%
same,"viability, T/C","second compound 3.16 µM, first compound 0.0316 µM",70.9%
same,"viability, T/C","second compound 3.16 µM, first compound 0.1 µM",68.3%
same,"viability, T/C","second compound 3.16 µM, first compound 0.316 µM",68.1%
same,"viability, T/C","second compound 3.16 µM, first compound 1 µM",74.3%
same,"viability, T/C","second compound 3.16 µM, first compound 3.16 µM",59.6%
same,"viability, T/C","second compound 3.16 µM, first compound 10 µM",20.3%
same,"viability, T/C","second compound 10 µM, first compound 0.0316 µM",70.5%
same,"viability, T/C","second compound 10 µM, first compound 0.1 µM",67.6%
same,"viability, T/C","second compound 10 µM, first compound 0.316 µM",66.3%
same,"viability, T/C","second compound 10 µM, first compound 1 µM",56.8%
same,"viability, T/C","second compound 10 µM, first compound 3.16 µM",47.9%
same,"viability, T/C","second compound 10 µM, first compound 10 µM",17.8%
O=C(C=Cc1cccc(S(=O)(=O)Nc2ccccc2)c1)NO + NC1CCC(NC2CC2c2ccccc2)CC1,IC50,[1],103 nM
same,IC50,[2],101 nM
same,IC50,[3],41.7 nM
same,IC50,[4],47.2 nM
same,IC50,[5],10.4 nM
same,"viability, T/C",[6],68%
same,"viability, T/C",[7],59.9%
same,"viability, T/C",[8],51.5%
same,"viability, T/C",[9],37.4%
same,"viability, T/C",[26],26.7%
same,"viability, T/C",[27],7.18%
same,"viability, T/C",[10],61.6%
same,"viability, T/C",[11],63.2%
same,"viability, T/C",[12],50.4%
same,"viability, T/C",[13],34.6%
same,"viability, T/C",[28],25.9%
same,"viability, T/C",[29],5.69%
same,"viability, T/C",[14],64.6%
same,"viability, T/C",[15],49.9%
same,"viability, T/C",[16],40.8%
same,"viability, T/C",[17],32.1%
same,"viability, T/C",[30],26%
same,"viability, T/C",[31],3.87%
same,"viability, T/C",[18],65.3%
same,"viability, T/C",[19],53.5%
same,"viability, T/C",[20],40%
same,"viability, T/C",[21],33.8%
same,"viability, T/C",[32],24.7%
same,"viability, T/C",[33],4.61%
same,"viability, T/C",[22],52.7%
same,"viability, T/C",[23],47.2%
same,"viability, T/C",[24],42.2%
same,"viability, T/C",[25],34.4%
same,"viability, T/C",[34],30.8%
same,"viability, T/C",[35],3.5%

# — PubChem BioAssay AID1918935 (Molecular Pharmacology Branch, DTP, NCI, 2023)
